# From patent publication US20130261132A1, “CALCIUM-SENSING RECEPTOR-ACTIVE COMPOUNDS” (LEO PHARMA A/S, priority 2010, published 2013)
# Target: T1, human CaSR (Homo sapiens, UniProt P41180)
# T1 sequence (P41180 20-1078): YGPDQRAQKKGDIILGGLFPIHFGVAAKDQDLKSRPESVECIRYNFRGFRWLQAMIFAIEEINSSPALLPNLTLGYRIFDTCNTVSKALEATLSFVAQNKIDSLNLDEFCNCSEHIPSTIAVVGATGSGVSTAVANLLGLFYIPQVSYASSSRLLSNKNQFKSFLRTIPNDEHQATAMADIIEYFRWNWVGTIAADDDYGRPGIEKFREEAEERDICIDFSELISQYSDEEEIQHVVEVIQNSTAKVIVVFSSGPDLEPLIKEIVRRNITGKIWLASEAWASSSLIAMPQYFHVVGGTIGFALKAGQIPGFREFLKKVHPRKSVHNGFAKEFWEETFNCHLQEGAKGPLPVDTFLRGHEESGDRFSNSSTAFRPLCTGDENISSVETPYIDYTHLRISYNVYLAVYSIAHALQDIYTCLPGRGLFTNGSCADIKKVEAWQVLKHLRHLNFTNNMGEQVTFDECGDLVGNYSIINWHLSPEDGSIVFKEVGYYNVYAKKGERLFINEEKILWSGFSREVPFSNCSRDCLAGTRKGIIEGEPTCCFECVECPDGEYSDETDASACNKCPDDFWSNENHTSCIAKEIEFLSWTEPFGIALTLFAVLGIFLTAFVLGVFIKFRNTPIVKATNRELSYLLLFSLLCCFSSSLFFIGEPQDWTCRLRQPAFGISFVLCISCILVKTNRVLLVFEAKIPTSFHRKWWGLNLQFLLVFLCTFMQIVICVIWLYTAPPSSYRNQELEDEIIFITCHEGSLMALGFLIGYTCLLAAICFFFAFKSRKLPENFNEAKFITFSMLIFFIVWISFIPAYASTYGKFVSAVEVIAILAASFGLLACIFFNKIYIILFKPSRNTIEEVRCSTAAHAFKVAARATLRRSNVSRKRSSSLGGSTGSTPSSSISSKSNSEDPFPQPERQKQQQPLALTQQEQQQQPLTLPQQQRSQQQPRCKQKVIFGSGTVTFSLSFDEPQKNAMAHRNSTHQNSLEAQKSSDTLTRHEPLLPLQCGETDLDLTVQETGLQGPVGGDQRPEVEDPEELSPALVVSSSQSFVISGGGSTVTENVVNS
# Experiment: Functional whole cell assay (modulation of human CaSR), IP1 accumulation in CHO-K1 cells
# Type: cell-based
# Settings: CHO-K1 cells stably expressing human CaSR, final Ca2+ 1.9 mM, IP1 readout; concentration producing 50% of maximum agonistic response
# Source text: The assay investigates a compound's functional ability to act as a biological positive modulator on the human CaSR. Activation of the receptor expressed on CHO-K1 cells is detected through the G alpha q pathway, the activation of phospholipase C and the accumulation of intracellular inositol phosphate (IP) as described earlier [Sandrine Ferry, Bruno Chatel, Robert H. Dodd, Christine Lair, Danielle Gully, Jean-Pierre Maffrand, and Martial Ruat. Effects of Divalent Cations and of a Calcimimetic on Adrenocorticotropic Hormone Release in Pituitary Tumor Cells. Biochemical and biophysical research Communications 238, 866-873 (1997)]. The human CaSR is stably expressed on a CHO-K1 cell clone, stimulated with a basal level of calcium and challenged with the tested compound. The level of IP1 is determined using the IP-One Terbium htrf kit (Cisbio, France). CHO-K1 cells not transfected with the CaSR fail to elicit an IP1 response upon calcium and/or compound stimulation.
# The ORF coding for the human CaSR (genebank: NM_000388) was acquired from Invitrogen Corp, USA and subsequently cloned into the mammalian expression vector pCDA3.1.
# CHO-K1 cells were transfected using Lipofectamine according to manufacturer's protocol (400.000 cells/well were seeded in a 6-well plate and transfected after 24 hours using 2 μg DNA and 5 μl lipofectamine). After another 24 hours the cells were detached, seeded and subjected to 1 mg/ml of G-418. Following 7 days growth single clones were picked, the CaSR expression evaluated using the 5C10 antibody against CaSR, the clones with the highest expression were selected and tested for functional response. The preferred clone was cultured according to standard procedures described in ATCC (American Type Culture Collection) protocols for CHO-K1 with the addition of 500 μg/ml G-418.
# On the assay day, cells were thawed, harvested and resuspended to 4*10^6 cells/ml in stimulation buffer (containing: Hepes 10 mM, MgCl2 0.5 mM, KCl 4.2 mM, NaCl 146 mM, glucose 5.5 mM, LiCl 50 mM, BSA 0.5% at pH 7.4). Ten μl cell solution was pipetted into wells of a white 384-well plate (Perkin Elmer Optiplate) containing 2 μl compound diluted in assay buffer (containing: Hepes 10 mM, MgCl2 0.5 mM, KCl 4.2 mM, NaCl 146 mM, glucose 5.5 mM, LiCl 50 mM, CaCl2 11.4 mM at pH 7.4), resulting in a final Ca^2+ concentration of 1.9 mM. After compound stimulation for 1 hour at 37° C. and 15 min at room temperature, 10 ul of IP-One assay detection reagent (prepared as described by the IP-One assay kit manufacturer) was added and the plate was incubated for another 1 hour at room temperature. Finally the plate was read using a Perkin Elmer EnVision, according to the protocol supplied by the IP-One assay kit manufacturer. The FRET ratio was calculated by dividing the 665 nm emission signal with that of the 615 nm.
# The molar concentration of a compound that produces 50% of the maximum agonistic response (the […] value) is calculated according to the equation “General sigmoidal curve with Hill slope, a to d” (Equation 1). This model describes a sigmoidal curve with an adjustable baseline. The equation can be used to fit curves where response is either increasing or decreasing with respect to the independent variable, X. […]
# y=(a−d)/(1+(x/c)̂b)+d Equation 1 x=concentration of tested compound […]
# a=min response as compound concentration approaches 0 d=max response as concentration of tested compound is increasing […]
# b=Hill coefficient or curve slope
row,SMILES,EC50 [nM]
1,"COc1cc([C@@H](C)N[C@H]2CC[C@@H](c3ccc(OCC(=O)NCCNS(C)(=O)=O)cc3)C2)ccc1F [Compound 108, 2-[4-[(1R,3S)-3-[[(1R)-1-(4-Fluoro-3-methoxy-phenyl)ethyl]-amino]-cyclopentyl]phenoxy]-N-[2-(methanesulfonamido)ethyl]acetamide]",< 200
2,"COc1cc([C@@H](C)N[C@H]2CC[C@@H](c3ccc(OCC(=O)NCCNCCO)cc3)C2)ccc1F [Compound 106, 2-[4-[(1R,3S)-3-[[(1R)-1-(4-Fluoro-3-methoxy-phenyl)ethyl]-amino]-cyclopentyl]phenoxy]-N-[2-(2-hydroxyethylamino)ethyl]acetamide]",< 200
3,"COc1cc([C@@H](C)N[C@H]2CC[C@@H](c3ccc(OCC(=O)NCCS(N)(=O)=O)cc3)C2)ccc1F [Compound 104, 2-[4-[(1R,3S)-3-[[(1R)-1-(4-Fluoro-3-methoxy-phenyl)ethyl]-amino]-cyclopentyl]phenoxy]-N-(2-sulfamoylethyl)acetamide]",< 200
4,"COc1cc([C@@H](C)N[C@H]2CC[C@@H](c3ccc(OCC(=O)N4CCNCC4)cc3)C2)ccc1F [Compound 103, 2-[4-[(1R,3S)-3-[[(1R)-1-(4-Fluoro-3-methoxy-phenyl)ethyl]-amino]-cyclopentyl]phenoxy]-1-piperazin-1-yl-ethanone]",< 200

# Continued, values first:
row,EC50 [nM],SMILES
1,< 200,"C[C@@H](N[C@H]1CC[C@@H](c2ccc(OCC(=O)NC3CCNCC3)cc2)C1)c1cccc2ccccc12 [Compound 112, 2-[4-[(1R,3S)-3-[[(1R)-1-(1-Naphthyl)ethyl]amino]cyclopentyl]-phenoxy]-N-(4-piperidyl)acetamide]"
2,< 200,"COc1cc([C@@H](C)N[C@H]2CC[C@@H](c3ccc(OCC(=O)N4CCN(C(C)=O)CC4)cc3)C2)ccc1F [Compound 109, 1-(4-Acetylpiperazin-1-yl)-2-[4-[(1R,3S)-3-[[(1R)-1-(4-fluoro-3-methoxy-phenyl)ethyl]amino]cyclopentyl]phenoxy]ethanone]"
3,< 200,"COc1cc([C@@H](C)N[C@H]2CC[C@@H](c3ccc(OCC(=O)N4CCN(S(N)(=O)=O)CC4)cc3)C2)ccc1F [Compound 110, 4-[2-[4-[(1R,3S)-3-[[(1R)-1-(4-Fluoro-3-methoxy-phenyl)-ethyl]-amino]cyclopentyl]phenoxy]acetyl]piperazine-1-sulfonamide]"
